In ChEMBL document CHEMBL6120944, “SAR Analysis of Novel Coxsackie virus A9 Capsid Binders” (J Med Chem, 2024):
Converted amounts (≈) assume the structure as drawn. The source made the active and inactive calls. The rule behind the calls is not given here.

Assays:
[1] = Distribution coefficient, log D of the compound by HPLC analysis; type: physicochemical; conditions: octanol/water
[2] = Cytotoxicity against human A549 cells assessed as cell viability; type: toxicity, cell-based
[3] = system: Coxsackievirus A9; assay: Antiviral activity against Coxsackievirus A9 infected in human A549 cells assessed as inhibition of virus-induced cytopathic effect pre-infected with virus for 1 hr followed by compound addition and measured after 24 hrs by crystal violet staining based analysis; type: functional, organism-based; conditions: Enterovirus B
[4] = Kinetic solubility of compound by HPLC analysis; type: physicochemical; conditions: read-out: Kinetic_solubility
[5] = system: Coxsackievirus A9; assay: Antiviral activity against Coxsackievirus A9 infected in human A549 cells assessed as increase in cell viability at 10 uM pre-infected with virus for 1 hr followed by compound addition and measured after 24 hrs by crystal violet staining based analysis; type: functional, organism-based
[6] = Selectivity index, ratio of CC50 for cytotoxicity against human A549 cells assessed as cell viability to EC50 for antiviral activity against Coxsackievirus A9 infected in human A549 cells assessed as inhibition of virus-induced cytopathic effect; type: toxicity, cell-based; conditions: read-out: Ratio CC50/EC50
[7] = system: Coxsackievirus A9; assay: Antiviral activity against Coxsackievirus A9 infected in human A549 cells assessed as increase in cell viability at 100 uM pre-infected with virus for 1 hr followed by compound addition and measured after 24 hrs by crystal violet staining based analysis relative to control; type: functional
[8] = Metabolic stability in human liver microsome assessed as intrinsic clearance preincubated with compound for 10 mins followed by NADP addition and measured after 60 mins by LC-MS/MS analysis; type: ADME; conditions: liver microsomes, time 70 min, read-out: CLH
[9] = Metabolic stability in CD-1 mouse liver microsome assessed as intrinsic clearance preincubated with compound for 10 mins followed by NADP addition and measured after 60 mins by LC-MS/MS analysis; type: ADME; conditions: liver microsomes, time 70 min, read-out: CLH
[10] = Metabolic stability in human liver microsome assessed as half life preincubated with compound for 10 mins followed by NADP addition and measured after 60 mins by LC-MS/MS analysis; type: ADME; conditions: liver microsomes, time 70 min
[11] = Metabolic stability in CD-1 mouse liver microsome assessed as half life preincubated with compound for 10 mins followed by NADP addition and measured after 60 mins by LC-MS/MS analysis; type: ADME; conditions: liver microsomes, time 70 min
[12] = system: Coxsackievirus A9; assay: Antiviral activity against Coxsackievirus A9 infected in human A549 cells assessed as inhibition of virus-induced cytopathic effect at 5 uM pre-infected with virus for 1 hr followed by compound addition and measured after 24 hrs by crystal violet staining based analysis relative to control; type: functional; parameters: scale not given: the % may be the effect or the level left
[13] = system: Coxsackievirus A9; assay: Antiviral activity against Coxsackievirus A9 infected in human A549 cells assessed as increase in cell viability at 5 uM pre-infected with virus for 1 hr followed by compound addition and measured after 24 hrs by crystal violet staining based analysis relative to control; type: functional

Row | logD [1] | EC50 [3] [µM] | solubility kinetic [4] [µg/mL] | microsomal CLint [8] [µL/min/mg] | microsomal CLint [9] [µL/min/mg] | half-life [10] [min] | half-life [11] [min] | Structure (SMILES) | CC50 [2] [µM] | Activity [5] | selectivity ratio [6] | Activity [7] [%] | Activity [12] [%] | Activity [13] [%]
1 | 1.93 | 5.84 | 220 (≈ 702 µM) |  |  |  |  | CN1CCN(Cc2ccc(NCc3cccc(F)c3)cc2)CC1 | 222 | Active | 38 | ~70 |  | 
2 | 1.98 | 4.11 | 220 (≈ 664 µM) |  |  |  |  | CN1CCN(Cc2ccc(NCc3ccc(F)c(F)c3)cc2)CC1 | 215 | Active | 52.2 | ~70 |  | 
3 | 2.05 | 6.66 | 260 (≈ 830 µM) |  |  |  |  | CN1CCN(Cc2ccc(NCc3ccccc3F)cc2)CC1 | 351 | Active | 52.8 | ~70 |  | 
4 |  | 1.06 | 210 (≈ 578 µM) | 41.2 | 108 | 33.7 | 12.8 | CN1CCN(Cc2ccc(NCc3ccc(C(F)(F)F)cc3)cc2)CC1 | 78.6 | Active | 74.1 | ~60 |  | 
5 | 1.9 | 6.8 | 240 (≈ 724 µM) |  |  |  |  | CN1CCN(Cc2ccc(NCc3ccc(F)cc3F)cc2)CC1 | 201 | Active | 29.5 | ~70 |  | 
6 |  | 7.84 |  |  |  |  |  | COc1ccccc1CNc1ccc(CN2CCN(C)CC2)cc1 | 360 | Active | 45.9 | 40 |  | 
7 | 1.81 | 10.5 | 210 (≈ 645 µM) |  |  |  |  | COc1ccc(CNc2ccc(CN3CCN(C)CC3)cc2)cc1 | 376 | Active | 36 | 60 |  | 
8 | 2.34 | 1.27 | 220 (≈ 667 µM) | 66.4 | 199 | 20.9 | 7 | CN1CCN(Cc2ccc(NCc3ccc(Cl)cc3)cc2)CC1 | 114 | Active | 90.1 |  | 100 | 90
9 |  | 0.64 | 210 (≈ 565 µM) |  |  |  |  | CN1CCN(Cc2ccc(NCc3ccc(-c4ccccc4)cc3)cc2)CC1 | 15.8 | Active | 24.7 |  | 100 | 60
10 | 1.94 | 2.34 | 200 (≈ 638 µM) |  |  |  |  | CN1CCN(Cc2ccc(NCc3ccc(F)cc3)cc2)CC1 | 364 | Active | 155 | ~70 |  | 
11 | 2.27 | 7.98 | 220 (≈ 640 µM) |  |  |  |  | CN1CCN(Cc2ccc(NC(=O)c3ccc(Cl)cc3)cc2)CC1 | > 1000 |  | > 125 |  |  | 
12 |  | 1.07 | 260 (≈ 674 µM) |  |  |  |  | CN1CCN(Cc2ccc(NC(=O)c3ccc(-c4ccccc4)cc3)cc2)CC1 | 144 |  | 134 |  |  | 
